# Where a name gives a salt, the structure may show the parent alone.
# System: capsaicin-induced respiratory effects
# Assay: Antagonism of capsaicin aerosol induced respiratory effects in conscious guinea pigs (whole body plethysmography)
# Assay type: in vivo, guinea pig
# Conditions: for DYSPNEA ONSET / MAXIMUM PRESSURE INCREASE (mmH2O) / SRE NUMBER*: mean and SEM; for SRE NUMBER*: number of coughs/gasps during 19 min exposure
# Description: In vivo experiments were performed using male Duncan Hartley guinea pigs (250-350g). Changes in conscious breathing patterns were monitored in four animals simultaneously using modified whole body plethysmography consisting of four small plexiglass boxes each connected to a reference box via Validyne DP 45-16 differential pressure transducers. The 4 boxes were equipped with an air supply line (also used for aerosol delivery) and an exhaust air line. Supply and exhaust lines were of the same length and narrow bore and arose from a common supply chamber and vented to a common exhaust chamber. This system was used to ensure that fluctuations in supply air and atmospheric pressure would remain in phase and be eliminated from the net signal by the differential pressure transducers. The analog pressure signals were digitalized via a Data Translation DT2821 A to D board. Data were collected at a rate of 100 samples/second/animal. Each cycle of pressure change was analyzed using the following parameters: rising and falling slope determined between minimum and maximum pressures, the ratio of rising over falling slope, and the magnitude of the change between initial trough pressure and peak cycle pressure. Using these values (and observing the animals) the pressure cycles were characterized into normal breaths, forced exhalations (apparent by abdominal heaving), significant respiratory events (SREs; usually coughs, less often sneezes or gasps which were characterized by transient, extremely large pressure increases which were distinguishable from noise) and movement/noise with a PCAT 286 running a System V UNIX operating system. Dyspnea was defined as a significant, sustained increase in plethysmograph pressure which was associated with an observable shift to labored breathing in the animal.
# During the course of a typical experiment in which airway responsiveness to various bronchoconstricting agents was examined, aerosols were delivered for 19 min (0.33 ml/min) using a DeVilbiss Ultraneb 99 ultrasonic nebulizer and animals monitored during this time. Prior to nebulization, 1 min of resting breathing was collected to establish a baseline pressure. […] The vehicle for nebulization of all bronchoconstrictive agents was phosphate buffered saline (pH 7.4) which elicited no respiratory effects itself. Putative tachykinin antagonists were administered either (i.v.) 20 min prior to onset of aerosol exposure or orally 1 hour prior to onset (to guinea pigs after an overnight fast).
# Capsaicin aerosol is known to promote release of the tachykinins SP and NKA from sensory nerves in the airways of guinea pigs which may then act upon NK1 and NK2 receptors, respectively to elicit respiratory effects. […]
# (§1) Values are mean and SEM of data derived from number of animals indicated in parenthesis. Putative tachykinin antagonists were administered intravenously 20 min prior to initiation of capsaicin aerosol (0.001%). *SRE number indicates the number of coughs/gasps which occurred during the 19 min capsaicin exposure period.
# as §1, with “by oral gavage 1 hr” for “intravenously 20 min”
# [1] = 10 mg/kg intravenously 20 min prior to capsaicin aerosol (0.001%)
# [2] = 25 mg/kg by oral gavage 1 hr prior to capsaicin aerosol (0.001%)
# [3] = 50 mg/kg by oral gavage 1 hr prior to capsaicin aerosol (0.001%)
# [4] = 100 mg/kg by oral gavage 1 hr prior to capsaicin aerosol (0.001%)
structure (smiles),measurement,setting,value
"COc1cc(C(=O)N2CCC(CCN3CCC(C(N)=O)(c4ccccc4)CC3)(c3ccc(Cl)c(Cl)c3)C2)cc(OC)c1OC (racemic) [Example 3A, 1-[2-[3-(3,4-dichloro-phenyl-3-yl)-1-(3,4,5-trimethoxy-benzoyl)-pyrrolidin-3-yl]-ethyl] -4-phenyl-piperidine-4-carboxylic acid amide hydrochloride]",DYSPNEA INCIDENCE,[1],89% (7/8)
same,DYSPNEA ONSET,[1],480 ± 80 s
same,MAXIMUM PRESSURE INCREASE (mmH2O),[1],0.83 ± 0.18 mmH2O
same,SRE NUMBER*,[1],8.50 ± 1.9
same,DYSPNEA INCIDENCE,[2],80% (8/10)
same,DYSPNEA ONSET,[2],424 ± 120 s
same,MAXIMUM PRESSURE INCREASE (mmH2O),[2],0.7 ± 0.2 mmH2O
same,SRE NUMBER*,[2],4.6 ± 1.0
same,DYSPNEA INCIDENCE,[3],70% (7/10)
same,DYSPNEA ONSET,[3],434 ± 152 s
same,MAXIMUM PRESSURE INCREASE (mmH2O),[3],0.4 ± 0.1 mmH2O
same,SRE NUMBER*,[3],2.8 ± 0.8
same,DYSPNEA INCIDENCE,[4],50% (5/10)
same,DYSPNEA ONSET,[4],360 ± 120 s
same,MAXIMUM PRESSURE INCREASE (mmH2O),[4],0.4 ± 0.1 mmH2O
same,SRE NUMBER*,[4],2.1 ± 0.5
